Assay results as given in US9689040B2, “Selective inhibitors of tumor-initiating cells” (Children's Medical Center Corporation, priority 2011, dated 2017).

Assays:
BPLER cells = experiment: Cell viability after drug treatment (CellTiterGlo / Trypan-Blue); assay type: cell-based, human
[1] = tested on: luminal MCF7 and BT-474 cells; experiment: Viability of breast cancer cell lines treated with bortezomib (CellTiterGlo); assay type: cell-based, human
Noxa, PARP1 = experiment: Immunoblot of Noxa induction and PARP cleavage in breast cell lines; assay type: cell-based, human; details: for Noxa protein induction: 12.5 nM, 24 hours
Protocol: Immunoblot was performed as described^41. Primary antibodies were as follows: cleaved Caspase 3 (Cell Signaling, rabbit polyclonal, 1:1000), PARP1 (Santa Cruz, rabbit polyclonal, 1:500), MCL1 (Cell Signaling, Rabbit polyclonal, 1:1000), Bim (Santa Cruz, rabbit polyclonal, 1:500), Bik (Cell Signaling, rabbit polyclonal, 1:1000), Puma (Cell Signaling, rabbit polyclonal, 1:1000), Noxa (Calbiochem, mouse monoclonal, 1:500), Bid (Santa Cruz, rabbit polyclonal, 1:500), Bad (Santa Cruz, rabbit polyclonal, 1:500). Antibodies were diluted in 5% milk in TBS-T and incubated O.N. at 4° C. Secondary mouse and rabbit HRP-conjugated antibodies were from Amersham. Protein signal was detected using the ECL Plus kit (Amersham). For flow cytometry, cells were stained as previously described^33, using the following fluorescent-conjugated antibodies: CD44 (BD Biosciences), CD24 (BD Biosciences), CD326 (ESA, Biolegend), Annexin V (Invitrogen). For immunofluorescence microscopy, cells were fixed in 2% PFA for 10 min, permeabilized with 1% Triton X in PBS for 5 min, and incubated with primary antibodies in 0.5% Triton X, 1% FBS in PBS for 30 min at RT. Antibodies were: CK18 (Santa Cruz, mouse monoclonal, 1:100) and CK14 (Millipore, mouse monoclonal, 1:100). After washing the cells were stained sequentially with AlexaFluor647-conjugated secondary antibody (Invitrogen, 1:200) and DAPI (Sigma, 1:5000). For immunohistochemistry, BPLER tumor sections were prepared from paraffin-embedded tissues, deparaffinized and treated with 10% citrate buffer for 15 min.

BPLER tumors = experiment: BPLER tumor xenografts in Nu/J mice (tumor volume, tumor weight); assay type: in vivo, mouse
Protocol: We first assessed the effect of bortezomib on pre-established subcutaneous BPLER xenografts in nude mice. […] To reduce experimental variability, we selected mice bearing tumors of homogenous size (˜[…] in diameter after 3 weeks from injection), which were randomized into two groups. Each group received 6 doses of either vehicle (DMSO) or bortezomib at 0.5 mg/kg i.p. q3d over a 16-day period, respectively. At the end of the treatment period, mice were sacrificed and tumor weight was assessed.
Bortezomib is already in the clinic for treatment of multiple myeloma and other lymphomas. To start investigating potential clinical efficacy in TNBC, BPLER tumor-bearing mice were given 1 dose (0.8 mg/kg) of bortezomib intratumorally (i.t.), intraperitoneally (i.p) or intravenously (i.v.) and proteasome activity in the tumor was assessed after 18 hours (FIG. 6A). […] To assess therapeutic efficacy, we administered bortezomib every 3 days (0.8 mg/kg i.t.) or weekly (1.6 mg/kg i.v.) after BPLER tumors, implanted in the flank of Nu/J mice, became palpable. BPLER tumor outgrowth was assessed by tumor volume during the treatment period and by tumor weight at the time of sacrifice.
All animal procedures were performed with IACUC approval. Exponentially growing cells were trypsinized with TRYPLE EXPRESS (Invitrogen), resuspended in a 1:1 WIT-Matrigel solution at the indicated numbers, and injected subcutaneously in the flank of 4-week old female Nu/J mice (Stock #002019, Jackson Laboratories). […] Mice were sacrificed 16 days after beginning treatment and tumor weight was assessed.

MB-468 tumors = experiment: MB-468 tumor-bearing mice; assay type: in vivo, mouse; details: intratumoral or intravenous regimen, 45 days
Protocol: Mean tumor volume in MB-468 tumor-bearing mice upon intratumoral infusion of bortezomib (0.8 mg/kg) or DMSO q3d.
Treatment was started once mice developed palpable tumors.

[2] = tested on: mouse TNBC primary tumor fragments; experiment: Primary TNBC tumor fragments from TP53 heterozygous Balb/c mice implanted in mammary fat-pad (V22 tumors); assay type: in vivo; details: 1.6 mg/kg weekly i.v. infusion
Protocol: (6A) Proteasome activity in protein lysates from BPLER tumors 18 hours after intratumoral (i.t.), intraperithoneal (i.p) or intravenous (i.v.) treatment with bortezomib at the indicated dose, as determined by ProteasomeGlo assay. Proteasome activity in BPLER treated with bortezomib in vitro is shown as control. (6B-6E) Mean tumor volume (6B, 6D) in BPLER tumor-bearing mice after treatment with bortezomib or DMSO at the indicated dose, schedule and route of administration. Median tumor weight was measured at time of sacrifice (6C, 6E). […] (6F) Immunoblot analysis of protein lysates from BPLER tumors 18 hours after 1 intravenous dose of bortezomib at 1.6 mg/kg bortezomib or DMSO, showing efficient Noxa induction and caspase-3 and PARP1 cleavage after bortezomib treatment. (6G) Mean tumor volume in MB-468 tumor-bearing mice after intravenous treatment with 1.6 mg/kg bortezomib weekly. (6H) Schematic diagram illustrating generation of mouse TNBC primary tumor fragments for bortezomib-based therapy studies. […] 4T1-E tumors are shown as control. (6I, 6J) Mean V22 tumor volume (6I) after weekly intravenous infusion of bortezomib (1.6 mg/kg) or DMSO. Treatment was started 2 days after implantation of primary tumor fragments. […] The top and the bottom of each box represent the 75th and 25th percentile of tumor weight, respectively. […]

[3] = tested on: epithelial TNBC / basal-like cells (MB-468, HCC-1143, HCC-1937, 4T1-E); experiment: cells; details: 24 h, read-out: decrease of cell viability
[4] = tested on: BPE, HMLER and BPLER cells; experiment: Cell cycle distribution (propidium iodide DNA staining)

CC(C)C[C@H](NC(=O)[C@H](Cc1ccccc1)NC(=O)c1cnccn1)B(O)O [bortezomib]
sensitivity of BPLER relative to HMLER cells (viability) (BPLER cells; increasing doses, 24 hr): more sensitive | response of BPLER cells at confluence (BPLER cells; non-dividing (confluent) cells): became resistant | cytotoxicity at 0.0125 µM ([1]; Homo sapiens, luminal cells, 12.5 nM, 24 hr, read-out: decrease of cell viability): 5% | sensitivity of ER+ and HER2+ breast cancer cell lines ([1]; MCF7, BT-474): resistant | Noxa protein induction (Noxa, PARP1; BPE, MCF7 and T47D): only weakly | Noxa protein level (Noxa, PARP1; BPLER cells): highly increased | PARP cleavage (Noxa, PARP1; HCC1143 and HCC1937 cells): induced PARP cleavage | PARP cleavage (Noxa, PARP1; MCF7 or MDA-MB-436 cells): not in MCF7 or MDA-MB-436 cells | Noxa protein induction (Noxa, PARP1; all TNBC cell lines tested): strongly induced Noxa protein | reduction of median tumor weight (BPLER tumors; 0.5 mg/kg i.p. q3d, 6 doses, after 16 days): 54% | tumors smaller than in control mice (tumor volume, average) (BPLER tumors; 0.8 mg/kg i.t. every 3 days): 85% | tumors weighed less than in control mice (average) (BPLER tumors; 0.8 mg/kg i.t. every 3 days): 91% | tumors smaller than in control mice (tumor volume, average) (BPLER tumors; 1.6 mg/kg i.v. weekly): 59% | tumors weighed less than in control mice (average) (BPLER tumors; 1.6 mg/kg i.v. weekly): 63% | Noxa induction and caspase 3 cleavage in tumors (BPLER tumors; immunohistochemistry and western blot): induced Noxa induction and caspase 3 cleavage in vivo | tumors smaller compared to control mice (MB-468 tumors): at least 6 fold | secondary tumors smaller compared to control mice [2]: ~90% | secondary tumors weighed less compared to control mice [2]: ~80% | cytotoxicity at 0.0125 µM [3]: 50 to 65% | cell cycle distribution ([4]; BPE cells, 24 hours): underwent G2/M arrest | cell cycle distribution ([4]; BPLER cells, low dose): did not undergo cell cycle arrest | cell cycle distribution ([4]; HMLER cells, low dose): underwent G2/M arrest
